Experimental data as given in patent US9695155B2, “Herbicidal substituted pyrimidinyloxy benzene compounds” (E. I. DU PONT DE NEMOURS AND COMPANY, priority 2013, dated 2017).

Legend:
morningglory = experiment: Test C preemergence; format: in vivo, Ipomoea coccinea; conditions: Ipomoea, pre-emergence
Method in brief: (§1)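 Seeds were sown in loam–sand blend and sprayed preemergence, while plants at 1- to 4-leaf stage (2–18 cm) in peat-based medium received postemergence sprays; test chemicals were formulated in a non-phytotoxic solvent with surfactant. After 13–15 days in a greenhouse, injury was rated visually against controls, 0 (no effect) to 100 (complete control).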

corn = experiment: Test C postemergence; format: in vivo, Zea mays; conditions: Zea mays, post-emergence
Method in brief: as §1

wild oat = experiment: Test C postemergence; format: in vivo, Avena fatua; conditions: Avena fatua, post-emergence
Method in brief: as §1

barnyardgrass = experiment: Test C postemergence; format: in vivo, Echinochloa crus-galli; conditions: Echinochloa crus-galli, post-emergence
Method in brief: as §1

blackgrass [1] = experiment: Test C postemergence; format: in vivo, Alopecurus myosuroides; conditions: Alopecurus myosuroides, post-emergence
Method in brief: as §1

Italian ryegrass = experiment: Test C preemergence; format: in vivo, Lolium multiflorum; conditions: Lolium multiflorum, pre-emergence
Method in brief: as §1

pigweed [2] = experiment: Test C preemergence; format: in vivo, Amaranthus retroflexus; conditions: Amaranthus retroflexus, pre-emergence
Method in brief: as §1

yellow nutsedge [3] = experiment: Test C preemergence; format: in vivo, Cyperus esculentus; conditions: Cyperus, pre-emergence, preemergence, scale 0 (no effect) to 100 (complete control), read-out: Nutsedge, Yellow plant response rating
Method in brief: as §1

giant foxtail = experiment: Test C postemergence; format: in vivo, Setaria faberii; conditions: Setaria faberi, post-emergence
Method in brief: as §1

ragweed = experiment: Test C preemergence; format: in vivo, Ambrosia elatior; conditions: Ambrosia artemisiifolia, pre-emergence
Method in brief: as §1

wheat, winter = experiment: Test C postemergence; format: in vivo, Triticum aestivum; conditions: Triticum aestivum, post-emergence
Method in brief: as §1

yellow nutsedge [4] = experiment: Test C postemergence; format: in vivo, Cyperus esculentus; conditions: Cyperus, post-emergence
Method in brief: as §1

large (Lg) crabgrass = experiment: Test A preemergence; format: in vivo, Digitaria sanguinalis; conditions: Digitaria sanguinalis, pre-emergence, 240 h
Method in brief: (§2)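 Greenhouse pot test, loam/sand soil. Formulation: non-phytotoxic solvent mix plus surfactant. Pre: directed spray onto soil after sowing. Post: plants at 1–2 leaf, 2–10 cm. Rated visually vs untreated controls at ~10 d, 0 (no effect) to 100 (complete control).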

pigweed [5] = experiment: Test A preemergence; format: in vivo, Amaranthus retroflexus; conditions: Amaranthus retroflexus, pre-emergence
Method in brief: as §2

blackgrass [6] = experiment: Test C preemergence; format: in vivo, Alopecurus myosuroides; conditions: Alopecurus myosuroides, pre-emergence
Method in brief: as §1

soybean = experiment: Test C preemergence; format: in vivo, Glycine max; conditions: Glycine max, pre-emergence
Method in brief: as §1

chickweed = experiment: Test C postemergence; format: in vivo, Stellaria media; conditions: Stellaria media, post-emergence
Method in brief: as §1

N#Cc1cccc(Oc2ncc(Br)cn2)c1-n1cc(C(F)(F)F)cn1 [Compound 59, 3-[(5-bromo-2-pyrimidinyl)oxy]-2-[4-(trifluoromethyl)-1H-pyrazol-1-yl]benzonitrile]
90%: pest or weed control at 125 g/ha (Italian ryegrass; 125 g ai/ha, preemergence, scale 0 (no effect) to 100 (complete control), read-out: Ryegrass, Italian plant response rating) | pest or weed control at 250 g/ha (Italian ryegrass; 250 g ai/ha, preemergence, scale 0 (no effect) to 100 (complete control), read-out: Ryegrass, Italian plant response rating) | pest or weed control at 250 g/ha (yellow nutsedge [3]; 250 g ai/ha) | pest or weed control at 250 g/ha (giant foxtail; 250 g ai/ha, postemergence, read-out: Plant response rating (0 to 100), Foxtail, Giant) | pest or weed control at 31 g/ha (ragweed; Preemergence, 31 g ai/ha, scale 0 to 100, 0 no effect, 100 complete control, read-out: Plant response rating, Ragweed) | pest or weed control at 125 g/ha (blackgrass [6]; 125 g ai/ha, preemergence, scale 0 (no effect) to 100 (complete control), read-out: Blackgrass plant response rating) | pest or weed control at 250 g/ha (blackgrass [6]; 250 g ai/ha, preemergence, scale 0 (no effect) to 100 (complete control), read-out: Blackgrass plant response rating) | plant injury at 62 g/ha (soybean; 62 g ai/ha, preemergence, scale 0 (no effect) to 100 (complete control), read-out: Soybean plant response rating) | plant injury at 125 g/ha (soybean; 125 g ai/ha, preemergence, scale 0 (no effect) to 100 (complete control), read-out: Soybean plant response rating)
20%: plant injury at 250 g/ha (corn; 250 g ai/ha, postemergence, read-out: Plant response rating (0 to 100), Corn) | plant injury at 125 g/ha (wheat, winter; 125 g ai/ha, postemergence, read-out: Plant response rating (0 to 100), Wheat) | plant injury at 250 g/ha (wheat, winter; 250 g ai/ha, postemergence, read-out: Plant response rating (0 to 100), Wheat)
100%: pest or weed control at 62 g/ha (morningglory; 62 g ai/ha, preemergence, scale 0 (no effect) to 100 (complete control), read-out: Morningglory plant response rating) | pest or weed control at 125 g/ha (morningglory; 125 g ai/ha, preemergence, scale 0 (no effect) to 100 (complete control), read-out: Morningglory plant response rating) | pest or weed control at 250 g/ha (morningglory; 250 g ai/ha, preemergence, scale 0 (no effect) to 100 (complete control), read-out: Morningglory plant response rating) | pest or weed control at 62 g/ha (pigweed [2]; 62 g ai/ha, preemergence, scale 0 (no effect) to 100 (complete control), read-out: Pigweed plant response rating) | pest or weed control at 125 g/ha (pigweed [2]; 125 g ai/ha, preemergence, scale 0 (no effect) to 100 (complete control), read-out: Pigweed plant response rating) | pest or weed control at 250 g/ha (pigweed [2]; 250 g ai/ha, preemergence, scale 0 (no effect) to 100 (complete control), read-out: Pigweed plant response rating) | pest or weed control at 31 g/ha (pigweed [2]; Preemergence, 31 g ai/ha, scale 0 to 100, 0 no effect, 100 complete control, read-out: Plant response rating, Pigweed) | pest or weed control at 125 g/ha (ragweed; 125 g ai/ha, preemergence, scale 0 (no effect) to 100 (complete control), read-out: Ragweed plant response rating) | pest or weed control at 250 g/ha (ragweed; 250 g ai/ha, preemergence, scale 0 (no effect) to 100 (complete control), read-out: Ragweed plant response rating) | pest or weed control at 125 g/ha (large (Lg) crabgrass; 125 g ai/ha, 0 to 100 scale where 0 is no effect and 100 is complete control, read-out: Plant response rating, Crabgrass, Large) | pest or weed control at 500 g/ha (large (Lg) crabgrass; 500 g ai/ha, 0 to 100 scale, 0 no effect, 100 complete control, approx. 10 days, read-out: Crabgrass, Large plant response rating) | pest or weed control at 125 g/ha (pigweed [5]; 125 g ai/ha, 0 to 100 scale where 0 is no effect and 100 is complete control, read-out: Plant response rating, Pigweed) | pest or weed control at 500 g/ha (pigweed [5]; 240 h, 500 g ai/ha, 0 to 100 scale, 0 no effect, 100 complete control, approx. 10 days, read-out: Pigweed plant response rating)
95%: pest or weed control at 31 g/ha (morningglory; Preemergence, 31 g ai/ha, scale 0 to 100, 0 no effect, 100 complete control, read-out: Plant response rating, Morningglory) | pest or weed control at 62 g/ha (ragweed; 62 g ai/ha, preemergence, scale 0 (no effect) to 100 (complete control), read-out: Ragweed plant response rating) | plant injury at 250 g/ha (soybean; 250 g ai/ha, preemergence, scale 0 (no effect) to 100 (complete control), read-out: Soybean plant response rating)
10%: Corn plant response rating (crop injury, 0 = no effect, 100 = complete kill) at 31 g/ha (corn; Postemergence, 31 g ai/ha, scale 0 to 100 (0 no effect, 100 complete control), 13 to 15 days) | pest or weed control at 125 g/ha (barnyardgrass; 125 g ai/ha, postemergence, read-out: Plant response rating (0 to 100), Barnyardgrass) | pest or weed control at 62 g/ha (blackgrass [1]; Postemergence, 62 g ai/ha, scale 0 to 100 (0 no effect, 100 complete control), read-out: Plant response rating, Blackgrass) | pest or weed control at 31 g/ha (giant foxtail; Postemergence, 31 g ai/ha, scale 0 to 100 (0 no effect, 100 complete control), 13 to 15 days, read-out: Plant response rating, Foxtail, Giant) | pest or weed control at 250 g/ha (yellow nutsedge [4]; 250 g ai/ha, postemergence, read-out: Plant response rating (0 to 100), Nutsedge, Yellow)
70%: pest or weed control at 62 g/ha (chickweed; Postemergence, 62 g ai/ha, scale 0 to 100 (0 no effect, 100 complete control), read-out: Plant response rating, Chickweed)
80%: pest or weed control at 125 g/ha (chickweed; 125 g ai/ha, postemergence, read-out: Plant response rating (0 to 100), Chickweed)
40%: pest or weed control at 125 g/ha (wild oat; 125 g ai/ha, postemergence, read-out: Plant response rating (0 to 100), Oat, Wild) | pest or weed control at 250 g/ha (wild oat; 250 g ai/ha, postemergence, read-out: Plant response rating (0 to 100), Oat, Wild) | pest or weed control at 250 g/ha (blackgrass [1]; 250 g ai/ha, postemergence, read-out: Plant response rating (0 to 100), Blackgrass) | pest or weed control at 31 g/ha (chickweed; Postemergence, 31 g ai/ha, scale 0 to 100 (0 no effect, 100 complete control), 13 to 15 days, read-out: Plant response rating, Chickweed)
98%: pest or weed control at 250 g/ha (chickweed; 250 g ai/ha, postemergence, read-out: Plant response rating (0 to 100), Chickweed)
65%: pest or weed control at 62 g/ha (yellow nutsedge [3]; 62 g ai/ha)
0%: pest or weed control at 31 g/ha (yellow nutsedge [4]; Postemergence, 31 g ai/ha, scale 0 to 100 (0 no effect, 100 complete control), 13 to 15 days, read-out: Plant response rating, Nutsedge, Yellow)
5%: pest or weed control at 31 g/ha (barnyardgrass; Postemergence, 31 g ai/ha, scale 0 to 100 (0 no effect, 100 complete control), 13 to 15 days, read-out: Plant response rating, Barnyardgrass) | pest or weed control at 62 g/ha (barnyardgrass; Postemergence, 62 g ai/ha, scale 0 to 100 (0 no effect, 100 complete control), read-out: Plant response rating, Barnyardgrass) | pest or weed control at 31 g/ha (blackgrass [1]; Postemergence, 31 g ai/ha, scale 0 to 100 (0 no effect, 100 complete control), 13 to 15 days, read-out: Plant response rating, Blackgrass) | plant injury at 31 g/ha (wheat, winter; Postemergence, 31 g ai/ha, scale 0 to 100 (0 no effect, 100 complete control), 13 to 15 days, read-out: Plant response rating, Wheat) | plant injury at 62 g/ha (wheat, winter; Postemergence, 62 g ai/ha, scale 0 to 100 (0 no effect, 100 complete control), read-out: Plant response rating, Wheat) | pest or weed control at 125 g/ha (yellow nutsedge [4]; 125 g ai/ha, postemergence, read-out: Plant response rating (0 to 100), Nutsedge, Yellow) | pest or weed control at 62 g/ha (yellow nutsedge [4]; Postemergence, 62 g ai/ha, scale 0 to 100 (0 no effect, 100 complete control), read-out: Plant response rating, Nutsedge, Yellow) | pest or weed control at 31 g/ha (blackgrass [6]; Preemergence, 31 g ai/ha, scale 0 to 100, 0 no effect, 100 complete control, read-out: Plant response rating, Blackgrass)
15%: plant injury at 125 g/ha (corn; 125 g ai/ha, postemergence, read-out: Plant response rating (0 to 100), Corn) | Corn plant response rating (crop injury, 0 = no effect, 100 = complete kill) at 62 g/ha (corn; Postemergence, 62 g ai/ha, scale 0 to 100 (0 no effect, 100 complete control))
50%: pest or weed control at 31 g/ha (Italian ryegrass; Preemergence, 31 g ai/ha, scale 0 to 100, 0 no effect, 100 complete control, read-out: Plant response rating, Ryegrass, Italian)
45%: pest or weed control at 125 g/ha (giant foxtail; 125 g ai/ha, postemergence, read-out: Plant response rating (0 to 100), Foxtail, Giant) | pest or weed control at 62 g/ha (giant foxtail; Postemergence, 62 g ai/ha, scale 0 to 100 (0 no effect, 100 complete control), read-out: Plant response rating, Foxtail, Giant)
85%: pest or weed control at 62 g/ha (Italian ryegrass; 62 g ai/ha, preemergence, scale 0 (no effect) to 100 (complete control), read-out: Ryegrass, Italian plant response rating) | pest or weed control at 125 g/ha (yellow nutsedge [3]; 125 g ai/ha) | pest or weed control at 62 g/ha (blackgrass [6]; 62 g ai/ha, preemergence, scale 0 (no effect) to 100 (complete control), read-out: Blackgrass plant response rating) | plant injury at 31 g/ha (soybean; Preemergence, 31 g ai/ha, scale 0 to 100, 0 no effect, 100 complete control, read-out: Plant response rating, Soybean)
25%: pest or weed control at 31 g/ha (wild oat; Postemergence, 31 g ai/ha, scale 0 to 100 (0 no effect, 100 complete control), 13 to 15 days, read-out: Plant response rating, Oat, Wild) | pest or weed control at 62 g/ha (wild oat; Postemergence, 62 g ai/ha, scale 0 to 100 (0 no effect, 100 complete control), read-out: Plant response rating, Oat, Wild) | pest or weed control at 250 g/ha (barnyardgrass; 250 g ai/ha, postemergence, read-out: Plant response rating (0 to 100), Barnyardgrass) | pest or weed control at 125 g/ha (blackgrass [1]; 125 g ai/ha, postemergence, read-out: Plant response rating (0 to 100), Blackgrass)
